Data: PMC4588877, “Guanine nucleotide exchange factor 2 for Rab5 proteins coordinated with GLUP6/GEF regulates the intracellular transport of the proglutelin from the Golgi apparatus to the protein storage vacuole in rice endosperm” (Journal of Experimental Botany, 2015)

Key:
[1] = molecular target: T1, Rab5b (Oryza sativa, UniProt Q10RN9); assay: GDP/GMP-PNP exchange, Trp intrinsic fluorescence (ex […] nm, em […] nm); type: binding; settings: 1 µM GST-Rab preloaded with GDP; 0.1 mM GMP-PNP; GST-GLUP6/GEF or GST-Rab5-GEF2 0-1 µM as exchange factor; 20 mM Tris-HCl pH 8.0, 150 mM NaCl, 0.5 mM MgCl2
T1 construct: gene Os03g0151900; GST fusion (pGEX 4T-1), E. coli BL21 (DE3); tag kept
T1 sequence (Q10RN9 1-199): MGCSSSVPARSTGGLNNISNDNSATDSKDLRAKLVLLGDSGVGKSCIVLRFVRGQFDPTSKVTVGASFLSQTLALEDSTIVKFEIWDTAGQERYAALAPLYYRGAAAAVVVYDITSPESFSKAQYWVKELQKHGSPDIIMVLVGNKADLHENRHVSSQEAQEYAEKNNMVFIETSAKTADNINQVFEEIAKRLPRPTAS

[2] = molecular target: T2, Rab5c (Oryza sativa, UniProt Q75HA2); assay: as above; type: binding; settings: 1 µM GST-Rab preloaded with GDP; 0.1 mM GMP-PNP; GST-GLUP6/GEF or GST-Rab5-GEF2 0-1 µM as exchange factor; 20 mM Tris-HCl pH 8.0, 150 mM NaCl, 0.5 mM MgCl2
T2 construct: gene Os03g0666500; GST fusion (pGEX 4T-1), E. coli BL21 (DE3); tag kept
T2 sequence (Q75HA2 1-203): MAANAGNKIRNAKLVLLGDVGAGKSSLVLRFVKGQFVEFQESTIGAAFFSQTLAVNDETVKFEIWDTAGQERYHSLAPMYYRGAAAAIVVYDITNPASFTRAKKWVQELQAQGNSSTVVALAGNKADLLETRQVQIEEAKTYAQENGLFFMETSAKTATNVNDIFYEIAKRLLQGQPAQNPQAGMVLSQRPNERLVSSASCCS

[3] = molecular target: T3, GLUP4/Rab5a (Oryza sativa, UniProt Q0ILQ6); assay: as above; type: binding; settings: 1 µM GST-Rab preloaded with GDP; 0.1 mM GMP-PNP; GST-Rab5-GEF2 0-1 µM as exchange factor; 20 mM Tris-HCl pH 8.0, 150 mM NaCl, 0.5 mM MgCl2
T3 construct: GST fusion (pGEX 4T-1), E. coli BL21 (DE3); tag kept
T3 sequence (Q0ILQ6 1-203): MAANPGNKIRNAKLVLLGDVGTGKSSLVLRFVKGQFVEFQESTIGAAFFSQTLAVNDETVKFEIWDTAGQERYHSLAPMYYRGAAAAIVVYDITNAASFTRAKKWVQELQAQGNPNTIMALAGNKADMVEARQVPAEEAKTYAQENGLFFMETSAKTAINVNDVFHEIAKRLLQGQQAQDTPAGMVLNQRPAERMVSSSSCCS

[4] = molecular target: GLUP4/Rab5a (rice) (UniProt Q0ILQ6); assay: SPR; BIACORE J; GLUP4/Rab5a immobilised on Sensor Chip CM5; Rab5-GEF2 or GLUP6/GEF (1.5, 3.5, 5, 6.5, 10.5 μM) applied for 120 s at 30 μl/min in 10 mM HEPES-NaOH pH 7.4, 0.15 M NaCl, 0.5 mM MgCl2, 10 mM GDP, 0.1% Triton X-100; apparent KD from association and dissociation curves

Kd [4] [µM] | Compound | GDP/GMP-PNP exchange, Trp intrinsic fluorescence (ex 298 nm, em 340 nm) [1] | GDP/GMP-PNP exchange, Trp intrinsic fluorescence (ex 298 nm, em 340 nm) [2] | GDP/GMP-PNP exchange, Trp intrinsic fluorescence (ex 298 nm, em 340 nm) [3]
– | Nc1nc2c(ncn2[C@@H]2O[C@H](COP(=O)(O)OP(=O)(O)NP(=O)(O)O)[C@@H](O)[C@H]2O)c(=O)[nH]1 [GMP-PNP] | Rab5b and Rab5c were activated by GLUP6/GEF in a dose-dependent manner | Rab5b and Rab5c were activated by GLUP6/GEF in a dose-dependent manner | Rab5-GEF2 activated GLUP4/Rab5a, the plant-specific Rab5b, and Rab5c in a dose-dependent manner
2.1 | GLUP6/GEF (natural protein) | – | – | –
1.7 | Rab5-GEF2 (natural protein) | – | – | –
